Reference: patent publication US20170165239A1, “USE OF BETA-CARBOLINE ALKALOID IN INHIBITING XANTHINE OXIDASE ACTIVITY” (Food Industry Research And Development Institute, priority 2015, published 2017)

Biological target: xanthine oxidase (Homo sapiens, UniProt P47989)
Assay: Xanthine oxidase inhibitory activity measured by HPLC (xanthine content)
Format: biochemical
Conditions: Flazin samples 0.625-20.0 mg/ml; xanthine 50 μg/ml, xanthine oxidase 0.1 U, 30° C., 30 min; FIG. 1
Experimental: Xanthine oxidase inhibitory activity was measured as follows. Firstly, concentrations (0.625, 1.25, 2.5, 5.0, 10.0 and 20.0 mg/ml) of Flazin samples were prepared. Then, xanthine oxidase inhibitory activity was measured by HPLC by the following procedure. In a reaction tube, 880 μl of xanthine (50 μg/ml in 100 mM PBS) and 40 μl of 50 mM PBS or 40 μl of the Flazin samples were premixed, and 80 μl […] of xanthine oxidase (0.1 U) was added to initiate the reaction. The reaction was incubated at 30° C. for 30 min., after which an equal volume of absolute ethanol was added to terminate the reaction. The terminated reaction was filtered through a 0.22 μm membrane filter and the content of xanthine in the reactions was analyzed by HPLC. Xanthine oxidase inhibitory activity of the samples was calculated as follows: […]

Chain of xanthine oxidase (P47989 whole entry, species assumed): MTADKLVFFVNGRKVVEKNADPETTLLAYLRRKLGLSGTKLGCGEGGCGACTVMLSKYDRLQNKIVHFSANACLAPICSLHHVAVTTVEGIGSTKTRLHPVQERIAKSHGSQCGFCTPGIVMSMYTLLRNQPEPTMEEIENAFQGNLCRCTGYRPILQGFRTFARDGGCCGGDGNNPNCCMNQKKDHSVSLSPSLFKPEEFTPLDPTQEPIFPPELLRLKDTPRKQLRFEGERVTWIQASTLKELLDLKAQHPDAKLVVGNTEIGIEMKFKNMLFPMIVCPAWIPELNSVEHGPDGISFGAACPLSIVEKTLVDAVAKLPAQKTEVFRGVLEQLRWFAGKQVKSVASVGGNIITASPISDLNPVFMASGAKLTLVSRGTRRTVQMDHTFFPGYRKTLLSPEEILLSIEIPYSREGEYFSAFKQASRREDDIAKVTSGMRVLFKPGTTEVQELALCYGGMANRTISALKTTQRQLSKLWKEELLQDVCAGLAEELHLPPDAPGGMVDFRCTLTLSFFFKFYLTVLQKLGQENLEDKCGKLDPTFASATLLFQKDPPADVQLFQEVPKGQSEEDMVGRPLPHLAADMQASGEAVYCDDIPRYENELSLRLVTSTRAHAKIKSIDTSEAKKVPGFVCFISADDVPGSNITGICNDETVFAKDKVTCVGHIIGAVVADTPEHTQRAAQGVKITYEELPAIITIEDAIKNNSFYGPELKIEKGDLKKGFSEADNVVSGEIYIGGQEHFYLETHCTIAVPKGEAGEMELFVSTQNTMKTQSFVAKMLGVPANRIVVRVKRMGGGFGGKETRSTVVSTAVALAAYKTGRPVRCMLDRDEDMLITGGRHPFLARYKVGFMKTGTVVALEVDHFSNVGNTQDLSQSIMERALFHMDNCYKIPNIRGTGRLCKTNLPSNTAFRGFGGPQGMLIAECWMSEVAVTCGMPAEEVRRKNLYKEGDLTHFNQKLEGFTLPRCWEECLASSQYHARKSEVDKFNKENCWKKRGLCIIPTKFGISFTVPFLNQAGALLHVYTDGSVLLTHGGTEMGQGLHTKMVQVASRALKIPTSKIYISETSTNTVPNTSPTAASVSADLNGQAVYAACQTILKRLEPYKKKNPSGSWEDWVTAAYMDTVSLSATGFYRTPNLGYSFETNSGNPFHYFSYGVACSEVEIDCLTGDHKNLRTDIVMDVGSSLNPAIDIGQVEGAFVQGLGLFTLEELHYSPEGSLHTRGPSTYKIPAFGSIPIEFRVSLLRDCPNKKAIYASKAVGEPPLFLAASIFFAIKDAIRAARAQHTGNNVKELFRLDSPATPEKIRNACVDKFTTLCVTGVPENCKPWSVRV

Work on `O=C(O)c1cc2c([nH]c3ccccc32)c(-c2ccc(CO)o2)n1` [Flazin, 1-[5-(hydroxymethyl)furan-2-yl]-9H-pyrido[3,4-b]indole-3-carboxylic acid] yielded an IC50 of about 32.1 mM.
